Experiments:
[1] = system: muscarinic cholinergic receptor; experiment: pharmacological studies, muscarinic cholinergic receptor activity
rats = experiment: in vivo observation in rats exposed to an overdose
clinical subjects = experiment: clinical observation of pupils in clinical subjects; assay type: in vivo
[2] = detection of radiolabelled compound in saliva; assay type: in vivo
Experimental: For example, in the treatment of adult humans, dosages of from about 0.25 to 50 mg, preferably from 1 to 30 mg, and most preferably 1 to 20 mg per day may be used. A once a day dosage is normally sufficient, although divided doses may be administered. For treatment of a dyskinesia, a dose range of from 1 to 30 mg, preferably 1 to 20 mg per day is suitable.

5-HT1C receptor = experiment: activity at the 5-HT1C receptor; conditions: anhydrous Form I

SMILES | muscarinic cholinergic receptor activity [1] | salivation (rats) | pupilary effect (clinical subjects) | detection in the saliva [2] | activity at the 5-HT1C receptor (5-HT1C receptor)
Cc1cc2c(s1)Nc1ccccc1N=C2N1CCN(C)CC1 | has muscarinic cholinergic receptor activity | significant salivation | pupilary constriction rather than the expected pupilary dilation | can be detected in the saliva | –
Cc1cc2c(s1)Nc1ccccc1N=C2N1CCN(C)CC1 [anhydrous Form I compound] | – | – | – | – | active

— US5776928A (priority 1995, dated 1998)
